Laboratory results from BindingDB's records for patent US20260028352 (Suzhou Langrui Biopharmaceutical, 2026).

Key:
[1] = biological target: High affinity nerve growth factor receptor NTRK1 [F589L] (UniProt P04629, F589L); experiment: Inhibitory Activity of Compounds Against TRKA and TRKA(F589L) Kinases
Description: (§1) Kinase Assay Process: 1× Kinase buffer was prepared. […] 10 μL of the 2.5× final concentration kinase solution was added to the compound wells and the positive control wells, and 10 μL of 1× Kinase buffer was added to the negative control wells. The plate was centrifuged at 1000 rpm for 30 seconds, vortexed for mixing, and then incubated at room temperature for 10 minutes. A mixture of 5/3× final concentration of ATP and Kinase Substrate 22 was prepared using 1× Kinase buffer. 15 μL of the mixture of the 5/3× final concentration ATP and the substrate was added to initiate the reaction, the 384-well plate was centrifuged at 1000 rpm for 30 seconds, vortexed for mixing, and incubated at room temperature for the required time. 30 μL of the termination solution was added to stop the kinase reaction, the plate was centrifuged at 1000 rpm for 30 seconds, and vortexed for mixing. The conversion rate was measured using the Caliper EZ Reader.

[2] = biological target: High affinity nerve growth factor receptor (Homo sapiens, UniProt P04629); experiment: as above
High affinity nerve growth factor receptor, sequence (P04629 whole entry): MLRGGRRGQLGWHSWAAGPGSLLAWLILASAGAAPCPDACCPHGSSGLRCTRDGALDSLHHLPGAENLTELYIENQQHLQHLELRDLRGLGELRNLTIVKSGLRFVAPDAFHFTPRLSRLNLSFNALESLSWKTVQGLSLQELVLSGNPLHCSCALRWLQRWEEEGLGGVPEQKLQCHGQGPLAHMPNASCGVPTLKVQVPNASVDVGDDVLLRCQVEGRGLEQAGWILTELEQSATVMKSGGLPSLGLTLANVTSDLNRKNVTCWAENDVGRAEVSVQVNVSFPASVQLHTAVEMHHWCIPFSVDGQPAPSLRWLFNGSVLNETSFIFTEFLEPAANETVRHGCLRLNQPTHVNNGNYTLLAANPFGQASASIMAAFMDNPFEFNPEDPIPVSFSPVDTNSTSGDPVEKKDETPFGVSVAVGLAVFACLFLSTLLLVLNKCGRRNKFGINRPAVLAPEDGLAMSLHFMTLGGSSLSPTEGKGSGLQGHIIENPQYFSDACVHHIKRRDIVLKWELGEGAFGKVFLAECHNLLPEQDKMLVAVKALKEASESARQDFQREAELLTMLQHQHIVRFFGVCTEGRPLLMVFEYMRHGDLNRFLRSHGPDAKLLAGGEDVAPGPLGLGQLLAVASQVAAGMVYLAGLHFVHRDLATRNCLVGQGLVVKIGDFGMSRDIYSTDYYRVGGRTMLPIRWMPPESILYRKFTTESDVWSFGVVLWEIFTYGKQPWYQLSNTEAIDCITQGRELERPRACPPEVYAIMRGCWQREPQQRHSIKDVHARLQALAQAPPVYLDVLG
Description: as §1

High affinity nerve growth factor receptor NTRK1 [F589L], sequence (P04629 33-796 F589L limits assumed): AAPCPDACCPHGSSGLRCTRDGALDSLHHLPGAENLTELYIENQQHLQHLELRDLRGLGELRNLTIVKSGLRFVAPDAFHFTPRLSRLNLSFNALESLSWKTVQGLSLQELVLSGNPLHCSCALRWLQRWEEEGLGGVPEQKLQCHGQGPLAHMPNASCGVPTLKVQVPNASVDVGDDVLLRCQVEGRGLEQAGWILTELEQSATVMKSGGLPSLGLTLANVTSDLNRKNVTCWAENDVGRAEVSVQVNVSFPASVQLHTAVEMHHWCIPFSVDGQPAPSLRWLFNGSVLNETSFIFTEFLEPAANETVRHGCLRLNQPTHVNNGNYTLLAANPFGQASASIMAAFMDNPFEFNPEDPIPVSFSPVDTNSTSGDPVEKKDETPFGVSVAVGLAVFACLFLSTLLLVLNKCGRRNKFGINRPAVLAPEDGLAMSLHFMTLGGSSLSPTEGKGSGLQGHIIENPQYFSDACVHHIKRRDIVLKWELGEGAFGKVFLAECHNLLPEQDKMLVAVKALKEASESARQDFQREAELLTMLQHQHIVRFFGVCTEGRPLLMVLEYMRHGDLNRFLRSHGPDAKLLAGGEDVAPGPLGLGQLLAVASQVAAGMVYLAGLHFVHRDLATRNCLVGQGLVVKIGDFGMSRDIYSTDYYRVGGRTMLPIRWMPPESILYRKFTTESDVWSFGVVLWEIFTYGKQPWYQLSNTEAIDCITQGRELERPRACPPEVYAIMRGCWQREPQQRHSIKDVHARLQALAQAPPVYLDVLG

| IC50 [1] | IC50 [2] | SMILES |
| --- | --- | --- |
| < 5 nM | < 3 nM | C[C@H]1Nc2ccc3ncc(n3n2)-c2cc(ncn2)CCOc2ccccc21 [US20260028352, Example I-32] |
| – | < 3 nM | C[C@@H]1Cc2ccnc(c2)-c2cnc3ccc(nn23)N[C@H](C)c2cc(F)ccc2O1 [US20260028352, Example I-34] |
| < 5 nM | < 3 nM | C[C@@H]1Cc2cc(ncn2)-c2cnc3ccc(nn23)N[C@H](C)c2cc(F)ccc2O1 [US20260028352, Example I-35] |
| < 5 nM | < 3 nM | C[C@@H]1Cc2ccnc(c2)-c2cnc3ccc(nn23)N[C@H](C)c2cc(F)cnc2O1 [US20260028352, Example I-36] |
| < 5 nM | < 3 nM | C[C@@H]1Cc2ccnc(c2)-c2cnc3ccc(nn23)N2CCC[C@@H]2c2cc(F)ccc2O1 [US20260028352, Example I-37] |
| – | < 3 nM | C[C@@H]1Cc2ccnc(c2)-c2cnc3ccc(nn23)N2CCC[C@@H]2c2cc(F)cnc2O1 [US20260028352, Example I-38] |
| < 5 nM | < 3 nM | C[C@@H]1Cc2ccnc(c2)-c2cnc3ccc(nn23)N2C[C@@H](F)C[C@@H]2c2cc(F)ccc2O1 [US20260028352, Example I-39] |
| – | < 3 nM | C[C@@H]1Cc2ccnc(c2)-c2cnc3ccc(nn23)N2C[C@@H](F)C[C@@H]2c2cc(F)cnc2O1 [US20260028352, Example I-40] |
| – | < 3 nM | C[C@H]1Nc2ccc3ncc(n3n2)-c2cc(ccn2)N2CC[C@H](C2)Oc2ccc(F)cc21 [US20260028352, Example I-41] |
| – | < 3 nM | C[C@H]1Nc2ccc3ncc(n3n2)-c2cc(ccn2)N2CC[C@@H](C2)Oc2ccc(F)cc21 [US20260028352, Example I-42] |
| – | < 3 nM | C[C@H]1Nc2ccc3ncc(n3n2)-c2cc(ccn2)N2CCC[C@H](C2)Oc2ccc(F)cc21 [US20260028352, Example I-43] |
| < 5 nM | < 3 nM | C[C@H]1Nc2ccc3ncc(n3n2)-c2cc(ccn2)N2CCC[C@@H](C2)Oc2ccc(F)cc21 [US20260028352, Example I-44] |
| < 5 nM | < 3 nM | Fc1ccc2c(c1)[C@H]1CCCN1c1ccc3ncc(n3n1)-c1cc(ccn1)[C@H]1CCC[C@H]1O2 [US20260028352, Example I-45] |
| < 5 nM | < 3 nM | Fc1ccc2c(c1)[C@H]1CCCN1c1ccc3ncc(n3n1)-c1cc(ccn1)[C@@H]1CCC[C@H]1O2 [US20260028352, Example I-46] |
| < 5 nM | < 3 nM | Fc1ccc2c(c1)C1(CC1)Nc1ccc3ncc(n3n1)-c1cc(ccn1)CO2 [US20260028352, Example I-47] |
| – | < 3 nM | CC1(C)Nc2ccc3ncc(n3n2)-c2cc(ccn2)COc2ccc(F)cc21 [US20260028352, Example I-48] |
| – | < 3 nM | Fc1ccc2c(c1)[C@H]1C[C@H](F)CN1c1ccc3ncc(n3n1)-c1cc(ccn1)CO2 [US20260028352, Example I-50] |
| – | < 3 nM | Fc1cnc2c(c1)[C@H]1CCCN1c1ccc3ncc(n3n1)-c1cc(ccn1)CO2 [US20260028352, Example I-51] |
| < 5 nM | < 3 nM | Fc1cnc2c(c1)[C@H]1C[C@H](F)CN1c1ccc3ncc(n3n1)-c1cc(ncn1)CO2 [US20260028352, Example I-52] |

| IC50 [1] | IC50 [2] | SMILES |
| --- | --- | --- |
| – | < 3 nM | Fc1ccc2c(c1)[C@H]1CCCN1c1ccc3ncc(n3n1)-c1cc(ccn1)CCO2 [US20260028352, Example I-53] |
| – | < 3 nM | Fc1cnc2c(c1)[C@H]1C[C@H](F)CN1c1ccc3ncc(n3n1)-c1cc(ccn1)CCO2 [US20260028352, Example I-54] |
| – | < 3 nM | Fc1cnc2c(c1)[C@H]1CCCN1c1ccc3ncc(n3n1)-c1cc(ccn1)CCO2 [US20260028352, Example I-55] |
| – | < 3 nM | Fc1ccc2c(c1)[C@H]1C[C@H](F)CN1c1ccc3ncc(n3n1)-c1cc(ccn1)CCO2 [US20260028352, Example I-56] |
| – | < 3 nM | Fc1ccc2c(c1)[C@H]1C[C@H](F)CN1c1ccc3ncc(n3n1)-c1cc(ncn1)CO2 [US20260028352, Example I-58] |
| – | < 3 nM | Fc1cnc2c(c1)[C@H]1CCCN1c1ccc3ncc(n3n1)-c1cc(ncn1)CO2 [US20260028352, Example I-59] |
| – | < 3 nM | Fc1cnc2c(c1)[C@H]1C[C@H](F)CN1c1ccc3ncc(n3n1)-c1cc(ccn1)CO2 [US20260028352, Example I-60] |
| < 5 nM | < 3 nM | Fc1ccc2c(c1)[C@H]1CCCN1c1ccc3ncc(n3n1)-c1nccc(n1)CO2 [US20260028352, Example I-61] |
| < 5 nM | < 3 nM | Fc1cnc2c(c1)[C@H]1C[C@H](F)CN1c1ccc3ncc(n3n1)-c1cc(cnn1)CO2 [US20260028352, Example I-62] |
| – | < 3 nM | Fc1cnc2c(c1)[C@H]1CCCN1c1ccc3ncc(n3n1)-c1nccc(n1)CO2 [US20260028352, Example I-63] |
| – | < 3 nM | Fc1cnc2c(c1)[C@H]1C[C@H](F)CN1c1ccc3ncc(n3n1)-c1nccc(n1)CO2 [US20260028352, Example I-64] |
| < 5 nM | < 3 nM | Fc1ccc2c(c1)[C@H]1CCCN1c1ccc3ncc(n3n1)-c1cc(cnn1)CO2 [US20260028352, Example I-65] |
| – | < 3 nM | Fc1cnc2c(c1)[C@H]1CCCN1c1ccc3ncc(n3n1)-c1cc(cnn1)CO2 [US20260028352, Example I-67] |
| – | < 3 nM | Fc1ccc2c(c1)[C@H]1C[C@H](F)CN1c1ccc3ncc(n3n1)-c1cc(cnn1)CO2 [US20260028352, Example I-68] |
| – | < 3 nM | Fc1ccc2c(c1)[C@H]1CCCN1c1ccc3ncc(n3n1)-c1cc(ncn1)CO2 [US20260028352, Example I-69] |
| – | < 3 nM | Fc1ccc2c(c1)[C@H]1C[C@H](F)CN1c1ccc3ncc(n3n1)-c1cc(ncn1)CCO2 [US20260028352, Example I-70] |
| – | < 3 nM | Fc1cnc2c(c1)[C@H]1CCCN1c1ccc3ncc(n3n1)-c1cc(ncn1)CCO2 [US20260028352, Example I-71] |
| – | < 3 nM | Fc1cnc2c(c1)[C@H]1C[C@H](F)CN1c1ccc3ncc(n3n1)-c1cc(ncn1)CCO2 [US20260028352, Example I-72] |
| < 5 nM | < 3 nM | C[C@H]1Nc2ccc3ncc(n3n2)-c2cc(ncn2)CCOc2ncc(F)cc21 [US20260028352, Example I-73] |

| IC50 [1] | IC50 [2] | SMILES |
| --- | --- | --- |
| < 5 nM | < 3 nM | C[C@H]1Nc2ccc3ncc(n3n2)-c2cc(ncn2)CCOc2ccc(F)cc21 [US20260028352, Example I-74] |
| – | < 3 nM | C[C@H]1Nc2ccc3ncc(n3n2)-c2cc(ccn2)CCOc2ncc(F)cc21 [US20260028352, Example I-75] |
| < 5 nM | < 3 nM | C[C@H]1Nc2ccc3ncc(n3n2)-c2cc(ccn2)CCOc2ccc(F)cc21 [US20260028352, Example I-76] |
| – | < 3 nM | C[C@H]1Nc2ccc3ncc(n3n2)-c2cc(ncn2)COc2ncc(F)cc21 [US20260028352, Example I-77] |
| < 5 nM | < 3 nM | C[C@H]1Nc2ccc3ncc(n3n2)-c2cc(ncn2)COc2ccc(F)cc21 [US20260028352, Example I-78] |
| < 5 nM | < 3 nM | C[C@H]1Nc2ccc3ncc(n3n2)-c2cc(cnn2)COc2ncc(F)cc21 [US20260028352, Example I-79] |
| – | < 3 nM | C[C@H]1Nc2ccc3ncc(n3n2)-c2nccc(n2)COc2ccc(F)cc21 [US20260028352, Example I-80] |
| < 5 nM | < 3 nM | C[C@H]1Nc2ccc3ncc(n3n2)-c2nccc(n2)COc2ncc(F)cc21 [US20260028352, Example I-81] |
| < 5 nM | < 3 nM | C[C@H]1Nc2ccc3ncc(n3n2)-c2cc(cnn2)COc2ccc(F)cc21 [US20260028352, Example I-82] |
| – | < 3 nM | C[C@H]1Nc2ccc3ncc(n3n2)-c2nccc(n2)CCOc2ncc(F)cc21 [US20260028352, Example I-83] |
| – | < 3 nM | C[C@H]1Nc2ccc3ncc(n3n2)-c2nccc(n2)CCOc2ccc(F)cc21 [US20260028352, Example I-84] |
| < 5 nM | < 3 nM | Fc1ccc2c(c1)[C@H]1CCCN1c1ccc3ncc(n3n1)-c1cc(cnn1)CCO2 [US20260028352, Example I-85] |
| – | < 3 nM | Fc1ccc2c(c1)[C@H]1C[C@H](F)CN1c1ccc3ncc(n3n1)-c1cc(cnn1)CCO2 [US20260028352, Example I-86] |
| < 5 nM | < 3 nM | Fc1cnc2c(c1)[C@H]1CCCN1c1ccc3ncc(n3n1)-c1cc(cnn1)CCO2 [US20260028352, Example I-87] |
| – | < 3 nM | Fc1cnc2c(c1)[C@H]1C[C@H](F)CN1c1ccc3ncc(n3n1)-c1cc(cnn1)CCO2 [US20260028352, Example I-88] |
| – | < 3 nM | Fc1ccc2c(c1)[C@H]1CCCN1c1ccc3ncc(n3n1)-c1nccc(n1)CCO2 [US20260028352, Example I-92] |
| – | < 3 nM | Fc1ccc2c(c1)[C@H]1C[C@H](F)CN1c1ccc3ncc(n3n1)-c1nccc(n1)CCO2 [US20260028352, Example I-93] |
| – | < 3 nM | Fc1cnc2c(c1)[C@H]1CCCN1c1ccc3ncc(n3n1)-c1nccc(n1)CCO2 [US20260028352, Example I-94] |
| < 5 nM | < 3 nM | C[C@H]1Cc2ccnc(n2)-c2cnc3ccc(nn23)N2C[C@@H](F)C[C@@H]2c2cc(F)cnc2O1 [US20260028352, Example I-96] |
